Experiments:
PIB-1 [1] = molecular target: T1, PIB-1 (Pseudomonas aeruginosa, UniProt Q9HT32); assay: isothermal titration calorimetry; format: binding
T1 sequence (Q9HT32 28-414): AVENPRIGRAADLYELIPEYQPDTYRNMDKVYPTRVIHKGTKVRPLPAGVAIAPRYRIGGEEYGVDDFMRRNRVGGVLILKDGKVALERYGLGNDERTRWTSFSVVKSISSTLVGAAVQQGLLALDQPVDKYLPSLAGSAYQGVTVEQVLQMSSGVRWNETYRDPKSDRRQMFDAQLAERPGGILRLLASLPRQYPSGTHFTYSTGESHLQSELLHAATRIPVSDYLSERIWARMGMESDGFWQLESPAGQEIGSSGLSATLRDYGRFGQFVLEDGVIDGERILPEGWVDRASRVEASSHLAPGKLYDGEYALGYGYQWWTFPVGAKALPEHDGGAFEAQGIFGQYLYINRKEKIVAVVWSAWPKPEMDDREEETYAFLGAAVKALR

PIB-1 [2] = molecular target: T1, PIB-1; assay: intrinsic protein fluorescence quenching; format: binding
purified protein = substrate: O=C(Cc1cccs1)N[C@@H]1C(=O)N2C(C(=O)O)=C(/C=C/c3ccc([N+](=O)[O-])cc3[N+](=O)[O-])CS[C@H]12; assay: purified protein; settings: no added metal, 10 mM Na-HEPES pH 7.5, 100 mM NaCl, 37 °C

In the case of `C[C@@H](O)[C@H]1C(=O)N2C(C(=O)O)=C(SCCN=CN)C[C@H]12` [imipenem], the Kd (PIB-1 [1]) is reported as 79.8 ± 5.9 µM.

`C[C@@H](O)[C@H]1C(=O)N2C(C(=O)O)=C(S[C@@H]3CN[C@H](C(=O)N(C)C)C3)[C@H](C)[C@H]12` [meropenem] was tested, and the Kd (PIB-1 [2]) was 74.8 ± 10.3 µM.

B1: PIB-1 (Pseudomonas aeruginosa PAO1) (protein)
chain: AVENPRIGRAADLYELIPEYQPDTYRNMDKVYPTRVIHKGTKVRPLPAGVAIAPRYRIGGEEYGVDDFMRRNRVGGVLILKDGKVALERYGLGNDERTRWTSFSVVKSISSTLVGAAVQQGLLALDQPVDKYLPSLAGSAYQGVTVEQVLQMSSGVRWNETYRDPKSDRRQMFDAQLAERPGGILRLLASLPRQYPSGTHFTYSTGESHLQSELLHAATRIPVSDYLSERIWARMGMESDGFWQLESPAGQEIGSSGLSATLRDYGRFGQFVLEDGVIDGERILPEGWVDRASRVEASSHLAPGKLYDGEYALGYGYQWWTFPVGAKALPEHDGGAFEAQGIFGQYLYINRKEKIVAVVWSAWPKPEMDDREEETYAFLGAAVKALR
For B1, the Km (purified protein) was 95.3 ± 8.9 µM and the kcat (purified protein) was 0.0041 ± 0.0005 s⁻¹.
